Test results taken from patent US4950602A, “Inhibition of lactate production by pyruvate adducts” (Cornell Research Foundation, Inc., priority 1987, dated 1990).
pIC50, pKi: −log10 of the molar value. “Also recorded” adds a separate entry of the source.

Tests used:
[1] = biological target: T1, beef heart lactate dehydrogenase (Bos taurus, UniProt Q5E9B1); test: Inhibition of beef heart lactate dehydrogenase (NADH absorbance at 340 nm); format: biochemical, bovine; conditions: for Relative Activity (%) Beef Heart: 0.24 mM pyruvate, 0.1 mM NADH, pH 7.2, 25° C.
T1 construct: purchased Worthington Biochemical Corporation (Freehold, N.J.); host or cells: beef heart
T1 sequence (Q5E9B1 whole entry): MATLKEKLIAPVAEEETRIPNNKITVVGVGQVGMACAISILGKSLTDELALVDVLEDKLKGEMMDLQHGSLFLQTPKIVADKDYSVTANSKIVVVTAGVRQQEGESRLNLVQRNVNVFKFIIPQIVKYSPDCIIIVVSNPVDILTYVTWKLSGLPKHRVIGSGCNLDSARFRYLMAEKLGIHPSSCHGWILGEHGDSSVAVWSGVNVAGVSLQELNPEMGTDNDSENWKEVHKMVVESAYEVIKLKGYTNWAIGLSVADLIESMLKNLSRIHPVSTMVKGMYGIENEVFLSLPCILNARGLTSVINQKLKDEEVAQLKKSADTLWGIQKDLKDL
Excerpt: (§1) Enzymes and enzyme assays. Rabbit muscle glyceraldehyde-3-phosphate dehydrogenase (80 U/mg: ammonium sulfate suspension), rabbit muscle glycerol-3-phosphate dehydrogenase (40 U/mg; ammonium sulfate suspension),beef liver glutamate dehydrogenase (120 U/mg: in 50% glycerol), mitochondrial pig heart malate dehydrogenase (1100 U/mg; in 50% glycerol) and yeast hexokinase (140 U/mg; ammonium sulfate suspension) were purchased from Boehringer Mannheim Corp. (Indianapolis). Beef heart lactate dehydrogenase (280 U/mg) was purchased from Worthington Biochemical Corporation (Freehold, N.J.). Porcine heart L-alanine aminotransferase (130 U/mg), rabbit muscle phosphofructokinase (140 U/mg; ammonium sulfate suspension), bovine heart α-ketoglutarate (8 U/mg) and pyruvate (5 U/mg) dehydrogenase complexes, sodium pyruvate, L-methionine-SR-sulfoximine, DL-vinylglycine, NAD^+, NADH and NAD^+ analogues (3-acetylpyridine, thionicotinamide, and 3-pyridinealdehyde adenine dinucleotides) were purchased from Sigma Chemical Company (St. Louis, Mo.).
(§2) Each of the enzymes was assayed by procedures in which change of absorbance at 340 nm due to NADH was followed essentially as described by Bergmeyer (1974, Methods of Enzymatic Analysis, 2nd Eng. Ed., Verlag Chemie Weinheim Academic Press, N.Y.) with the following exceptions. Phosphofructokinase was assayed according to the method of Lai et al (1984, J. Neurochem., 42:438-446). NAD^+ -linked isocitrate dehydrogenase was assayed as described by Lai and Clark (1976, Biochem. J., 154:423-432). Pyruvate and α-ketoglutarate dehydrogenase complexes were respectively assayed according to the methods of Lai and Sheu (1985, J. Neurochem., 45:1861-1868) and Lai and Cooper (1986) (J. Neurochem, 47:1376-1386).
The reaction mixture (1 ml) contained 0.24 mM sodium pyruvate, 0.1 mM
NADH, 100 mM potassium phosphate buffer (pH 7.2) and either purified
bovine heart lactate dehydrogenase (0.01 U) or rat brain homogenate
containing ~0.02 U of lactate dehydrogenase activity; 25° C.
Since APADpyruvate adduct and RAP have a tendency to revert to pyruvate
they were added to the reaction mixture just prior to addition of enzyme.
Because the kinetics obtained with tightbinding inhibitors depends on the
order of addition of substrates and inhibitors the enzyme was always adde
last. Each value is the average of at least 3 determinations. Each of the […]

[2] = biological target: T2, α-ketoglutarate dehydrogenase (Rattus norvegicus, UniProt Q5XI78+Q6P6R2); test: Rat brain α-ketoglutarate dehydrogenase with RAP; format: biochemical; conditions: 20 μM RAP
T2 construct: following enzymes in rat brain subcellular fractions: α-ketoglutarate; from tissue; host or cells: rat brain subcellular fractions
T2 sequence (Q5XI78 41-1023): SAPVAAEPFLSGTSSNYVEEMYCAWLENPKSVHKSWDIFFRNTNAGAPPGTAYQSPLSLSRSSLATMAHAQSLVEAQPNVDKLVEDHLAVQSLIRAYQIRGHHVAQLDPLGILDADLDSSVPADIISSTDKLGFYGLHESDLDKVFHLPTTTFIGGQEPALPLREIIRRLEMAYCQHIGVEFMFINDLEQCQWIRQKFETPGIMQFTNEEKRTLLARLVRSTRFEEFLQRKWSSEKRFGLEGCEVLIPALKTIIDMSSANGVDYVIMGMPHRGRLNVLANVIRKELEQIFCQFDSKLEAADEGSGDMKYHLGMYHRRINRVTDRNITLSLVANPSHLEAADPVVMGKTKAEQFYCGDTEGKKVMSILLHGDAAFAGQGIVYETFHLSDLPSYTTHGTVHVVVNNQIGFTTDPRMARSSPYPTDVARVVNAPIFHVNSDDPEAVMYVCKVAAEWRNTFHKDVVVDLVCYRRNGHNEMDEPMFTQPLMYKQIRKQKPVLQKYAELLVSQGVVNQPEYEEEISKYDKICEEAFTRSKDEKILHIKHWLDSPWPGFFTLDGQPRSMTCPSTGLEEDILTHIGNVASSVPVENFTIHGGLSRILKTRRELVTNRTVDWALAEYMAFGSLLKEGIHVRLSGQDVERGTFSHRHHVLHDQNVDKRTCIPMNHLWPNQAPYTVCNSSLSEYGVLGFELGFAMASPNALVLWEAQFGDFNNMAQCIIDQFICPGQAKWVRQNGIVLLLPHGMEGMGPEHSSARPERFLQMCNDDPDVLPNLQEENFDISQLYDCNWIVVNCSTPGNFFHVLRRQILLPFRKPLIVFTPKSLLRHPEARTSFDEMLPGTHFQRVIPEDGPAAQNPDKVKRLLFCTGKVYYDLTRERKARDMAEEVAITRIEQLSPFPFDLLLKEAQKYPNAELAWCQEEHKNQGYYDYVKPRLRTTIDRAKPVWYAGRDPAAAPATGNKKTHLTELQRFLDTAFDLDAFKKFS
T2 sequence (Q01205 69-454 partner): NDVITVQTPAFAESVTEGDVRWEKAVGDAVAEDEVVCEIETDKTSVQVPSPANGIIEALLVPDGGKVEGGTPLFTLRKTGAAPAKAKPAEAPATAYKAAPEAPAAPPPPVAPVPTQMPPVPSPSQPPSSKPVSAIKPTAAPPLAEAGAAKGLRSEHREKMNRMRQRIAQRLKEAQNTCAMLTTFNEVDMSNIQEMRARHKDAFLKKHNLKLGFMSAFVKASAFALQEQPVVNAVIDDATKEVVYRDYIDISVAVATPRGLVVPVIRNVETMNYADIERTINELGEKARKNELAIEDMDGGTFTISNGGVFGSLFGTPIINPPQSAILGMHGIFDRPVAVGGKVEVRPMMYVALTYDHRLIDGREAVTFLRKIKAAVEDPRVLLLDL
T2 sequence (Q6P6R2 36-509): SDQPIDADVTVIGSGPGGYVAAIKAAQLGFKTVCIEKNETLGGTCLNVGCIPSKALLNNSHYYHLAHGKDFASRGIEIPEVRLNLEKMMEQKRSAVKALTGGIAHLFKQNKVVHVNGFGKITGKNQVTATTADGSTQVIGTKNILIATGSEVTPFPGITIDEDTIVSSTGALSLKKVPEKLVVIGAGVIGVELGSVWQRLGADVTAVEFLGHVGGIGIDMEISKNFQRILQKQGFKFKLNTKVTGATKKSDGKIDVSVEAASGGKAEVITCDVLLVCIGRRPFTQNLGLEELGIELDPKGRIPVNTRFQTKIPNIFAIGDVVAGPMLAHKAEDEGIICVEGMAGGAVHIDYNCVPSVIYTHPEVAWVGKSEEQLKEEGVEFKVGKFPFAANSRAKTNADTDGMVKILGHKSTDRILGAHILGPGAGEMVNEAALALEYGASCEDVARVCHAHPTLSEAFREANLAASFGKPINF
Description: as §2

[3] = biological target: T3, isocitrate dehydrogenase (Rattus norvegicus, UniProt Q99NA5); test: Rat brain isocitrate dehydrogenase with RAP; format: biochemical; conditions: 20 μM RAP
T3 construct: following enzymes in rat brain subcellular fractions: α-ketoglutarate, isocitrate; from tissue; host or cells: rat brain subcellular fractions
T3 sequence (Q99NA5 28-366): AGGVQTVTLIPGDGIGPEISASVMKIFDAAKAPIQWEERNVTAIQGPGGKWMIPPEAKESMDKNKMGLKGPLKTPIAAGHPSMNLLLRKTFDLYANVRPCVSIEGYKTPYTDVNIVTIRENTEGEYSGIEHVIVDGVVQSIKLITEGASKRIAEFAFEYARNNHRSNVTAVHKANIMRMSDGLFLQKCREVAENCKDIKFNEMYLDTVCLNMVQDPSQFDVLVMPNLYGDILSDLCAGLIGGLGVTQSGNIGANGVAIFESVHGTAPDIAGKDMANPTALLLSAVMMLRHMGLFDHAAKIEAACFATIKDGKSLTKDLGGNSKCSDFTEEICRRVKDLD
T3 sequence (Q68FX0 35-385 partner): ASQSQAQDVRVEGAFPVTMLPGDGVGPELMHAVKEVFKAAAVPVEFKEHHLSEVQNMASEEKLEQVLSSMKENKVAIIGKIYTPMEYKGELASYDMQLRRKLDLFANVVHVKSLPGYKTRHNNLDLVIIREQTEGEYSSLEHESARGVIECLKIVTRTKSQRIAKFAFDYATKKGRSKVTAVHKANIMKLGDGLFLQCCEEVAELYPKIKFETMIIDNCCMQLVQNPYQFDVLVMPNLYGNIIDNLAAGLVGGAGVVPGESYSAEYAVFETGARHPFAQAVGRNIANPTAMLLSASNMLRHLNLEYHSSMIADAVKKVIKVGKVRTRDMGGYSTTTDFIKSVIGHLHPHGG
T3 sequence (P41565 40-393 partner): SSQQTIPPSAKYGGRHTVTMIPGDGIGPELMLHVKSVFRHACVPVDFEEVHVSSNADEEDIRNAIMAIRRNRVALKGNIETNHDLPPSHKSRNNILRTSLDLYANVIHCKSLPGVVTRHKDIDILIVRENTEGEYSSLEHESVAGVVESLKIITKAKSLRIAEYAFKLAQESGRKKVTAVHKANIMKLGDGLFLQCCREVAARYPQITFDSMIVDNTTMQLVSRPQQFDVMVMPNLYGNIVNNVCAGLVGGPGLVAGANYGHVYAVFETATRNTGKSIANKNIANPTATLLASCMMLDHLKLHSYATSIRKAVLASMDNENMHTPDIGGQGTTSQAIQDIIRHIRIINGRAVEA
Description: as §2

[4] = biological target: T4, cytosolic malate dehydrogenase (Rattus norvegicus, UniProt O88989); test: Rat brain cytosolic (soluble) malate dehydrogenase with RAP; format: biochemical; conditions: 20 μM RAP
T4 construct: following enzymes in rat brain subcellular fractions: α-ketoglutarate, isocitrate and cytosolic malate dehydrogenases; from tissue; host or cells: rat brain subcellular fractions
T4 sequence (O88989 whole entry): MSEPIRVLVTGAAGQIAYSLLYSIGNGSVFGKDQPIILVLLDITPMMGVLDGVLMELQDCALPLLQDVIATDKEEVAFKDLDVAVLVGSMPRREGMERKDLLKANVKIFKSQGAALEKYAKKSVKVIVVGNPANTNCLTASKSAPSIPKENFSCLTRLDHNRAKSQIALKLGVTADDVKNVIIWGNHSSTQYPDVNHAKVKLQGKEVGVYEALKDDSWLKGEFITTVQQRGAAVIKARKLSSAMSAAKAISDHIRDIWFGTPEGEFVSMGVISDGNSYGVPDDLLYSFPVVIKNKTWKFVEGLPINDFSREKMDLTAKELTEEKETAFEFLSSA
Description: as §2

[5] = biological target: T5, hexokinase (Rattus norvegicus, UniProt P05708); test: Rat brain hexokinase with RAP; format: biochemical; conditions: 20 μM RAP
T5 construct: following enzymes in rat brain subcellular fractions: α-ketoglutarate, isocitrate and cytosolic malate dehydrogenases, and hexokinase; from tissue; host or cells: rat brain subcellular fractions
T5 sequence (P05708 whole entry): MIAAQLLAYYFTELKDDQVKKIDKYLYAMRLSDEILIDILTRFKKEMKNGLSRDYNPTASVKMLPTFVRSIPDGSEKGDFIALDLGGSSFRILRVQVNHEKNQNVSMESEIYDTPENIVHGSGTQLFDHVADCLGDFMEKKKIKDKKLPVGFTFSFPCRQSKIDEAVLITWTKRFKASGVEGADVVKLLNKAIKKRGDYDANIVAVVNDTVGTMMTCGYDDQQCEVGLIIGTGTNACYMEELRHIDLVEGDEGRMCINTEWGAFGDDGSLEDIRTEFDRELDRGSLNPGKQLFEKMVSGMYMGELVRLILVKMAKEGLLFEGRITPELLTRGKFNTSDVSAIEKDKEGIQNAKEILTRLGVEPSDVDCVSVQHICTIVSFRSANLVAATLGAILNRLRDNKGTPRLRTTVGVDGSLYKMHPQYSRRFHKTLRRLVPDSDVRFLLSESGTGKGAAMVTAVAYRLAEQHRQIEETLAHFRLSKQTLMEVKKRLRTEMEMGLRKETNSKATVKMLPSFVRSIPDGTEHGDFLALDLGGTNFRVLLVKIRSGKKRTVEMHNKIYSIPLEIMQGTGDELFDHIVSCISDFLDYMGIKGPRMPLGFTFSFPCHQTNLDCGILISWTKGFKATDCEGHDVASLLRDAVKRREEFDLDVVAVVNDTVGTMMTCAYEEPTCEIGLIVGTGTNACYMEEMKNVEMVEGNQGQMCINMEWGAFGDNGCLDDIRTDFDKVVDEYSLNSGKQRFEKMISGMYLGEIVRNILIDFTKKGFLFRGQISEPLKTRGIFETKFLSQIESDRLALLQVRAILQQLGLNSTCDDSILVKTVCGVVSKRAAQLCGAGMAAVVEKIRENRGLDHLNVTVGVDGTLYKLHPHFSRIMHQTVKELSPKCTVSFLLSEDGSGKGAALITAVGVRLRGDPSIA
Description: as §2

[6] = biological target: T6, bovine heart pyruvate dehydrogenase complex (Bos taurus, UniProt A7MB35+F1N206+P11966); test: Purified bovine heart pyruvate dehydrogenase complex with RAP; format: biochemical; conditions: 20 μM RAP
T6 construct: overall NADH-forming activity assayed at 340 nm
Excerpt: as §1
Each of the enzymes was assayed by procedures in which change of absorbance at 340 nm due to NADH was followed essentially as described by Bergmeyer (1974, Methods of Enzymatic Analysis, 2nd Eng. Ed., Verlag Chemie Weinheim Academic Press, N.Y.) with the following exceptions. […]

[7] = biological target: T7, mitochondrial malate dehydrogenase (Rattus norvegicus, UniProt P04636); test: Rat brain mitochondrial malate dehydrogenase with RAP; format: biochemical; conditions: 20 μM RAP
T7 construct: Commercial and rat brain glutamate dehydrogenases and mitochondrial malate dehydrogenases were only slightly; from tissue; host or cells: rat brain
T7 sequence (P04636 25-338): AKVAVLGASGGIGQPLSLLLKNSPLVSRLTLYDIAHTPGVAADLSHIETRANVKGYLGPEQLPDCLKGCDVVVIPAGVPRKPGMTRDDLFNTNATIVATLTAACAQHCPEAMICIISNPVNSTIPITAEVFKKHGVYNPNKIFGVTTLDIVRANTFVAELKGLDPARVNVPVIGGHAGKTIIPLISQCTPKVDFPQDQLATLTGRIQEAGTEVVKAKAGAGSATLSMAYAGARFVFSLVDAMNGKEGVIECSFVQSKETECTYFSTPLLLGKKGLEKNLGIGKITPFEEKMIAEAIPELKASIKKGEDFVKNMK
Description: as §2

[8] = biological target: T8, pyruvate dehydrogenase (Rattus norvegicus, UniProt P26284+P49432+Q6P6R2); test: Rat brain pyruvate dehydrogenase with RAP; format: biochemical; conditions: 20 μM RAP
T8 construct: from tissue; host or cells: rat brain
Description: as §2

[9] = system: lactate production from D-glucose in synaptosomes; test: Lactate production from D-glucose in rat brain synaptosomes; format: cell-based
Description: FIG. 2 is a graphic presentation of inhibition of lactate production from D-glucose by rat brain postnuclear supernatant fraction and by synaptosoms incubated with RAP. Lactate production was determined for a 20-min incubation at 37° C. Values (expressed as % of the control rate) are mean±SD of 3-6 determinations. The control value was 8.1±0.9 nmol of lactate produced/min/mg protein, *P<0.05, **P<0.03 and ***P<0.005vs. control values.
Postnuclear supernatant fraction (containing the glycolytic enzymes) was prepared from rat brain according to the method of Lai et al (1984, supra). Rat brain synaptosomes were prepared according to the method of Lai et al (1980, Biochem. Pharmacol., 29:141-146). Lactate generated by these preparations in the presence of D-glucose was measured with lactate dehydrogenase as described by Lai et al (1984, supra), except that the concentrations of sodium phosphate buffer and nicotinamide used in the medium were respectively 5 and 20 mM. (In some cases where there was a carry over of appreciable RAP to the assay mix, ten times the recommended amount of lactate dehydrogenase was used and the effectiveness of the enzyme in converting lactate to pyruvate was checked by addition of lactate standards to the cuvette after the initial reaction was over).

[10] = biological target: rat brain lactate dehydrogenase; test: Inhibition of rat brain lactate dehydrogenase (rat brain homogenate); format: biochemical; conditions: in the presence of either 0.2 or 2 mM pyruvate and 0.1 mM NADH

Nc1ncnc2c1ncn2[C@@H]1O[C@H](COP(=O)(O)OP(=O)(O)OC[C@H]2O[C@@H](N3C=CC(CC(=O)C(=O)O)C(C=O)=C3)[C@H](O)[C@@H]2O)[C@@H](O)[C@H]1O (stereo partly shown) [RAP, 3(-4-(reduced 3-pyridinealdehyde-adeninedinucleotide))-pyruvate]
pKi ([1]; Ki for the A form, A isomer at the 4 position, taken as half of the mixture, calculated from Table 1 data): 8.89
pKi ([1]; Ki, calculated from Table 1 data with Km for NADH 2.5 μM, standard equation for a competitive inhibitor): 8.59
Relative Activity (%) Beef Heart ([1]; additive 42 nM): 79%
Relative Activity (%) Beef Heart ([1]; additive 84 nM): 58%
Relative Activity (%) Beef Heart ([1]; additive 132 nM): 40%
Relative Activity (%) Beef Heart ([1]; additive 180 nM): 29%
potency as inhibitor of lactate dehydrogenase relative to the NAD-pyruvate adduct ([1]; from Table 1): ~ 1000 fold
type of inhibition with respect to pyruvate ([1]; suggested by the 2.4 mM pyruvate finding): noncompetitive inhibitor with respect to pyruvate
effect on rat brain α-ketoglutarate dehydrogenase [2]: little or no effect; also recorded: did not inhibit
effect on rat brain isocitrate dehydrogenase [3]: little or no effect; also recorded: did not inhibit
effect on rat brain cytosolic (soluble) malate dehydrogenase [4]: little or no effect; also recorded: did not inhibit
effect on rat brain hexokinase [5]: similarly unaffected; also recorded: did not inhibit
effect on purified bovine heart pyruvate dehydrogenase complex [6]: nor did 20 μM RAP inhibit
effect on rat brain mitochondrial malate dehydrogenase [7]: little or no effect
inhibition at 20 µM [7]: ≤ 20%
effect on rat brain pyruvate dehydrogenase [8]: little or no effect
inhibition of lactate production from glucose in synaptosomes compared with rat brain extracts [9]: less effective
inhibition of lactate production in synaptosomes ([9]; initial concentrations of 250-500 μM): 15-30%
pIC50 [10]: ~7.00
